Data: article PMC11012124, “Synthesis of Novel Triazine-Based Chalcones and 8,9-dihydro-7H-pyrimido[4,5-b][1,4]diazepines as Potential Leads in the Search of Anticancer, Antibacterial and Antifungal Agents” (International Journal of Molecular Sciences, 2024)
In brackets after ≈: the same amount, converted by molar mass.

Assays:
SK-MEL-2 = experiment: cells; conditions: Homo sapiens, SK-MEL-2, 48 h; for CC50: read-out: LC50
IGROV1 = experiment: cells; conditions: Homo sapiens, IGROV-1, 48 h; for CC50: read-out: LC50
K-562 = experiment: cells; conditions: Homo sapiens, K562, 48 h; for GI50: K-562, 48 h; for CC50: read-out: LC50
[1] = tested on: Trichophyton mentagrophytes (CCC 202-2000); experiment: Antifungal broth microdilution (CLSI); type: cell-based; conditions: Tm: Trichophyton mentagrophytes
Procedure: Several of the obtained triazine derivatives were evaluated against sensitive fungal species comprising of two yeasts (Candida albicans (ATCC 10231), Cryptococcus neoformans (ATCC 32264)), three dermatophytes (Microsporum gypseum (CCC 115), Trichophyton rubrum (CCC 134-2000), Trichophyton mentagrophytes (CCC 202-2000)), and three Aspergillus fungi ((A. [NT] 26934), A. niger (ATCC 9029), and A. flavus (ATCC 9170)). […] Broth microdilution techniques were performed in 96-well microplates according to the Reference Method for Broth Dilution Antifungal Susceptibility Testing of Yeasts, document M27-A3 [86] and of Filamentous Fungi […]-A8 [87]. […] An inoculum suspension (100 μL) was added to each well (final well volume = 200 μL). One growth control well (containing medium, inoculum, and the same amount of DMSO as used for each compound) and one sterility control well (sample, medium, and sterile water instead of inoculum) were included for each fungus tested. Microtiter plates were incubated in a dark, humid chamber at 30 °C for the time necessary for each fungus. Amphotericin B, Terbinafine, Fluconazole and Itraconazole were used as a positive control. The tests were performed in triplicate.

TK-10 = experiment: cells; conditions: Homo sapiens, TK-10, 48 h; for CC50: read-out: LC50
OVCAR-5 = experiment: cells; conditions: Homo sapiens, OVCAR-5, 48 h; for CC50: read-out: LC50
T-47D = experiment: cells; conditions: Homo sapiens, T47D, 48 h; for CC50: read-out: LC50
NCI/ADR-RES = experiment: cells; conditions: Homo sapiens, 48 h; for CC50: read-out: LC50
MDA-MB-435 = experiment: cells; conditions: Homo sapiens, MDA-MB-435, 48 h; for CC50: read-out: LC50
SR = experiment: cells; conditions: Homo sapiens, 48 h
SN12C = experiment: cells; conditions: Homo sapiens, 48 h; for CC50: read-out: LC50
SK-OV-3 = experiment: cells; conditions: Homo sapiens, SK-OV-3, 48 h; for CC50: read-out: LC50
MCF7 = experiment: cells; conditions: Homo sapiens, MCF7, 48 h; for CC50: read-out: LC50
CCRF-CEM = experiment: cells; conditions: Homo sapiens, 48 h; for CC50: read-out: LC50
NCI-H522 = experiment: cells; conditions: Homo sapiens, NCI-H522, 48 h; for CC50: read-out: LC50
CAKI-1 = experiment: cells; conditions: Homo sapiens, CAKI-1, 48 h; for CC50: read-out: LC50
SK-MEL-28 = experiment: cells; conditions: Homo sapiens, SK-MEL-28, 48 h; for CC50: read-out: LC50
MALME-3M = experiment: cells; conditions: Homo sapiens, 48 h; for CC50: read-out: LC50
DU-145 = experiment: cells; conditions: Homo sapiens, DU-145, 48 h; for CC50: read-out: LC50
[2] = Hemolytic activity, spectrophotometric; type: cell-based, human; conditions: human, human red blood cells (huRBC), 5% hematocrit, 200 μg/mL, 37 °C
OVCAR-8 = experiment: cells; conditions: Homo sapiens, OVCAR-8, 48 h; for CC50: read-out: LC50
SW-620 = experiment: cells; conditions: Homo sapiens, SW-620, 48 h; for CC50: read-out: LC50
HL-60(TB) = experiment: cells; conditions: Homo sapiens, HL-60, 48 h; for CC50: read-out: LC50
NCI-H460 = experiment: cells; conditions: Homo sapiens, NCI-H460, 48 h; for CC50: read-out: LC50
KM12 = experiment: cells; conditions: Homo sapiens, KM12, 48 h; for CC50: read-out: LC50
OVCAR-4 = experiment: cells; conditions: Homo sapiens, OVCAR-4, 48 h; for CC50: read-out: LC50
[3] = tested on: N. gonorrhoeae ATCC 49226; experiment: MIC on GC agar plates; type: cell-based, Neisseria gonorrhoeae; conditions: Neisseria gonorrhoeae, ATCC49226, read-out: MIC
How it was run: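 N. gonorrhoeae (1 × 10^4 CFU) was spotted onto IsoVitaleX-supplemented (1%) GC agar containing graded compound levels. The lowest inhibitory concentration was recorded as the MIC, with oxidase testing used to verify growth, and each assay was done in duplicate on at least two separate occasions.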

[4] = tested on: M. tuberculosis ATCC 27294; experiment: Antitubercular broth microdilution MIC; type: cell-based; conditions: Mycobacterium tuberculosis; M. tuberculosis ATCC 27294 (H37Rv); read-out: Minimum inhibitory concentration (MIC)

Work on COc1cc(/C=C/C(=O)c2cc(OC)c(OC)c(OC)c2)ccc1Oc1nc(Nc2ccc(F)cc2)nc(N(C)C)n1 [21d] yielded a GI50 (SK-MEL-2) of 1.69 µM, a CC50 (SK-MEL-2) of 8.47 µM and a GI50 (IGROV1) of 1.93 µM. It also gave a CC50 (IGROV1) of 12.2 µM, a GI50 (K-562) of 1.4 µM and a CC50 (K-562) greater than 100 µM. For the same compound, the MIC [1] was greater than 250 µg/mL, the GI50 (TK-10) was 2.53 µM and the CC50 (TK-10) was 38.1 µM. The GI50 (OVCAR-5) was 1.48 µM, the CC50 (OVCAR-5) was 11.6 µM and the GI50 (T-47D) was 1.87 µM. For the same compound, the CC50 (T-47D) was greater than 100 µM, the GI50 (NCI/ADR-RES) was 1.42 µM and the CC50 (NCI/ADR-RES) was 8.08 µM. It also gave a GI50 (MDA-MB-435) of 1.63 µM, a CC50 (MDA-MB-435) of 7.69 µM and a GI50 (SR) of 0.7 µM. It also gave a CC50 (SR; read-out: LC50) greater than 100 µM, a GI50 (SN12C) of 1.23 µM and a CC50 (SN12C) of 6.04 µM. It also gave a GI50 (SK-OV-3) of 8.42 µM, a CC50 (SK-OV-3) of 97.4 µM and a GI50 (MCF7) of 1.06 µM. For the same compound, the CC50 (MCF7) was 67 µM, the GI50 (CCRF-CEM) was 2.19 µM and the CC50 (CCRF-CEM) was greater than 100 µM. The GI50 (NCI-H522) was 1.47 µM, the CC50 (NCI-H522) was 7.11 µM and the GI50 (CAKI-1) was 1.98 µM. The CC50 (CAKI-1) was 25.1 µM, the GI50 (SK-MEL-28) was 1.8 µM and the CC50 (SK-MEL-28) was 9.23 µM. It also gave a GI50 (MALME-3M) of 1.75 µM, a CC50 (MALME-3M) of 11.1 µM and a GI50 (DU-145) of 3.99 µM. It also gave a CC50 (DU-145) of 67.9 µM, a hemolysis at 24 h, 200 µg/mL [2] of 8% and a GI50 (OVCAR-8) of 1.55 µM. The CC50 (OVCAR-8) was greater than 100 µM, the GI50 (SW-620) was 1.55 µM and the CC50 (SW-620) was 6.89 µM. For the same compound, the GI50 (HL-60(TB)) was 2.21 µM, the CC50 (HL-60(TB)) was greater than 100 µM and the GI50 (NCI-H460) was 1.45 µM. The CC50 (NCI-H460) was 7.53 µM, the GI50 (KM12) was 3.63 µM and the CC50 (KM12) was greater than 100 µM. The GI50 (OVCAR-4) was 2.07 µM and the CC50 (OVCAR-4) was greater than 100 µM.

In the case of CN(C)c1nc(NCCNS(=O)(=O)c2ccc(C(=O)/C=C/c3ccc(Cl)cc3)cc2)nc(Nc2ccc(F)cc2)n1 [24e], the GI50 (SK-MEL-2) is reported as 5.47 µM, the CC50 (SK-MEL-2) is reported as 19.5 µM and the GI50 (IGROV1) is reported as 8.58 µM. It also gave a CC50 (IGROV1) of 21.4 µM, a GI50 (K-562) of 3.29 µM and a CC50 (K-562) greater than 100 µM. The MIC [1] was 125 µg/mL (≈ 210 µM), the GI50 (TK-10) was 11.7 µM and the CC50 (TK-10) was 30.3 µM. For the same compound, the GI50 (OVCAR-5) was 10.7 µM, the CC50 (OVCAR-5) was 22.6 µM and the GI50 (T-47D) was 4.37 µM. The CC50 (T-47D) was 18 µM, the GI50 (NCI/ADR-RES) was 5.49 µM and the CC50 (NCI/ADR-RES) was 18.4 µM. For the same compound, the GI50 (MDA-MB-435) was 3.8 µM, the CC50 (MDA-MB-435) was 14 µM and the GI50 (SN12C) was 3.79 µM. It also gave a CC50 (SN12C) of 15.9 µM, a GI50 (SK-OV-3) of 11.5 µM and a CC50 (SK-OV-3) of 27.7 µM. For the same compound, the GI50 (MCF7) was 2.28 µM, the CC50 (MCF7) was 6.33 µM and the GI50 (CCRF-CEM) was 3.75 µM. The CC50 (CCRF-CEM) was greater than 100 µM, the GI50 (NCI-H522) was 7.1 µM and the CC50 (NCI-H522) was 22 µM. For the same compound, the MIC [3] was 500 µg/mL (≈ 839 µM), the GI50 (CAKI-1) was 4.93 µM and the CC50 (CAKI-1) was 19.5 µM. It also gave a GI50 (SK-MEL-28) of 6.77 µM, a CC50 (SK-MEL-28) of 20.1 µM and a GI50 (MALME-3M) of 12.8 µM. The CC50 (MALME-3M) was 26.4 µM, the GI50 (DU-145) was 9.7 µM and the CC50 (DU-145) was 21.8 µM. For the same compound, the hemolysis at 24 h, 200 µg/mL [2] was 9.1%, the GI50 (OVCAR-8) was 10.2 µM and the CC50 (OVCAR-8) was 23.7 µM. It also gave a GI50 (SW-620) of 2.78 µM, a CC50 (SW-620) of 11 µM and an MIC [4] of 25 µg/mL (≈ 41.9 µM). The GI50 (HL-60(TB)) was 4.39 µM, the CC50 (HL-60(TB)) was greater than 100 µM and the GI50 (NCI-H460) was 3.38 µM. For the same compound, the CC50 (NCI-H460) was 13.8 µM, the GI50 (KM12) was 2.97 µM and the CC50 (KM12) was 9.1 µM. It also gave a GI50 (OVCAR-4) of 5.92 µM and a CC50 (OVCAR-4) of 22 µM.
